Test results from patent US12558428B2, “Heterobifunctional compounds and their use in treating disease” (Halda Therapeutics OpCo, Inc., priority 2024, dated 2026).

Columns and labels:
CDK1 = target: T1, CDK1 (Homo sapiens, UniProt P06493); test: Binding affinity to CDK1 (KdELECT assay)
T1 construct: made in house; host or cells: T7 phage in E. coli BL21-derived host, or HEK-293 cells
Procedure: Exemplary compounds were tested for ability to bind to CDK1.
Compounds were tested using a KdELECT assay. Kinase-tagged T7 phage strains were prepared in an E. coli host derived from the BL21 strain. E. coli were grown to log-phase and infected with T7 phage and incubated with shaking at 32° C. until lysis. The lysates were centrifuged and filtered to remove cell debris. The remaining kinases were produced in HEK-293 cells and subsequently tagged with DNA for qPCR detection. Streptavidin-coated magnetic beads were treated with biotinylated small molecule ligands for 30 minutes at room temperature to generate affinity resins for kinase assays. The liganded beads were blocked with excess biotin and washed with blocking buffer (SeaBlock (Pierce), 1% BSA, 0.05% Tween 20, 1 mM DTT) to remove unbound ligand and to reduce non-specific binding. Binding reactions were assembled by combining kinases, liganded affinity beads, and test compounds in 1× binding buffer (20% SeaBlock, 0.17×PBS, 0.05% Tween 20, 6 mM DTT). Test compounds were prepared as 11 IX stocks in 100% DMSO. Kd values were determined using an 11-point 3-fold compound dilution series with three DMSO control points. All compounds for Kd measurements are distributed by acoustic transfer (non-contact dispensing) in 100% DMSO. […] The kinase concentration in the eluates was measured by qPCR.

[1] = test system: T-Rex 293 cells having increased expression of estrogen receptor alpha protein; test: Cellular growth inhibition assay, T-Rex 293 cells, (+) doxycycline; assay type: cell-based; conditions: T-REx-293, 72 h, Table 7-B; T-Rex 293 cells with doxycycline (increased ERα expression); 72 hours; CellTiter-Glo; read-out: (+) Dox GI50
Outline: (§1)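 Cells of an inducible ERα-expressing T-Rex 293 clone are seeded in charcoal-dextran FBS medium with or without 3 ng/mL doxycycline, then treated after 24 h with compound dilutions (0.5% DMSO) for 72 h. Growth inhibition is measured by CellTiter-Glo luminescence and expressed as GI50.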

[2] = test system: MCF7 cells (ECACC #86012803); test: Cellular growth inhibition assay, MCF7 cells purchased from ECACC; assay type: cell-based; conditions: Homo sapiens, 144 h; MCF7 cells purchased from ECACC (#86012803); six days treatment; CellTiter-Glo 2.0 viability
Procedure: Exemplary compounds were tested for the ability to inhibit the proliferation of MCF7 cells.
MCF7 cells (ATCC #HTB-22 or ECACC #86012803) were cultured in RPMI 1640 medium supplemented with 10% heat-inactivated fetal bovine serum, 1% pen-strep, and 0.2 U/ml insulin. Cells were seeded in 25 μL of RPMI 1640 medium supplemented with 10% heat-inactivated fetal bovine serum, 1% pen-strep, 0.2 U/ml insulin in poly-D-lysine treated, black clear-bottom 384-well plates at 225 cells/well for MCF7 cells purchased from ECACC or 1,500 cells/well for MCF7 cells purchased from ATCC. Following seeding, plates were spun at 300×g for 30 seconds and cultured at 37° C. with 5% CO2 in a humidified tissue culture incubator.
At 24 hours after seeding, compounds were titrated in 100% DMSO and diluted in RPMI 1640 medium supplemented with 10% heat-inactivate fetal bovine serum, 1% pen-strep, and 0.2 U/ml insulin. A 25 μL aliquot of the compound/media mixture was added to cells, bringing the total volume in each well to 50 μL. An equal volume of DMSO without compound was used as a negative control. After treatment, plates were spun at 300×g for 30 seconds, then cultured at 37° C. with 5% CO2 for six days in a humidified tissue culture incubator.
On Day 6 of treatment, cell viability was quantified with CellTiter-Glo 2.0 reagent (Promega). Plates were equilibrated to room temperature for 30 minutes, then 25 μL of CellTiter-Glo 2.0 reagent was added to cells, bringing the total volume in each well to 75 μL. After reagent was added, plates were mixed on a shaker for two minutes at 500 rpm and then incubated at room temperature for 10 minutes. Following incubation, plates were spun at 3,000×g for 30 seconds, sealed with an optical adhesive cover, and luminescence readings were measured with an EnVision Plate Reader.
Data was normalized to 0 luminescence for baseline. A four-parameter, non-linear regression curve fit was applied to dose-response data in GraphPad Prism data analysis software to determine the half maximal growth inhibitory concentration (GI50) for each compound.

[3] = test system: T-Rex 293 cells lacking increased expression of estrogen receptor alpha protein; test: Cellular growth inhibition assay, T-Rex 293 cells, (−) doxycycline; assay type: cell-based; conditions: T-REx-293, 72 h, Table 7-B; T-Rex 293 cells without doxycycline (lacking increased ERα expression); 72 hours; CellTiter-Glo; read-out: (−) Dox GI50
Outline: as §1

T1 sequence (P06493 whole entry): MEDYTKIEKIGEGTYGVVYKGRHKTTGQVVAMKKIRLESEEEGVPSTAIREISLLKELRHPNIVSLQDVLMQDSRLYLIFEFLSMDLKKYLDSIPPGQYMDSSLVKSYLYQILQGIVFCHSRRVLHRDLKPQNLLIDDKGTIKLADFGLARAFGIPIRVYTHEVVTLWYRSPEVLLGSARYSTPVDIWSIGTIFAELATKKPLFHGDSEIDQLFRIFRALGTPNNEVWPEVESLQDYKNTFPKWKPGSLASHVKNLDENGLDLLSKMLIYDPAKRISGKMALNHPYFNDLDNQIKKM

SMILES | Kd (CDK1) | GI50 [2] | GI50 [1] | GI50 [3]
CCN(CCOCCOCCNS(=O)(=O)c1ccc(Nc2ncc(Br)c(Nc3cccc(F)c3C(N)=O)n2)cc1)CCOc1ccc(C(=O)c2c(-c3ccc(O)cc3)sc3cc(O)ccc23)cc1 [I-40] | 50 to 500 nM |  |  | 
CCN(CCOCCOCCOCCOCCOCCOCCNS(=O)(=O)c1ccc(Nc2ncc(Br)c(Nc3cccc(F)c3C(N)=O)n2)cc1)CCOc1ccc(C(=O)c2c(-c3ccc(O)cc3)sc3cc(O)ccc23)cc1 [I-42] | 50 to 500 nM |  |  | 
COc1cc(N2CCN(CC3(O)CCN(c4ccc(C5=N[C@@H](C)c6nnc(C)n6-c6sc(C)c(C)c65)cc4)CC3)CC2)ccc1C1=C(c2ccccc2)CCCc2cc(C(=O)O)ccc21 [IV-66] |  | < 50 nM | < 50 nM | 500 to 2500 nM
Cc1sc2c(c1C)C(c1ccc(N3CCC(O)(CN4CCN(c5cc(F)c(C6=C(c7ccccc7)CCCc7cc(C(=O)O)ccc76)cc5F)CC4)CC3)cc1)=N[C@@H](C)c1nnc(C)n1-2 [IV-67] |  | < 50 nM | < 50 nM | 500 to 2500 nM
COc1cc(N2CCN(CC3(O)CCN(c4ccc(C5=N[C@@H](C)c6nnc(C)n6-c6sc(C)c(C)c65)cc4)CC3)CC2)c(F)cc1C1=C(c2ccccc2F)CCCc2cc(C(=O)O)ccc21 [IV-68] |  | < 50 nM | < 50 nM | 500 to 2500 nM
Cc1sc2c(c1C)C(c1ccc(N3CCC(O)(CN4CCN(c5cc(F)c(C6=C(c7ccccc7)CCCc7cc(C(=O)O)ccc76)c(F)c5)CC4)CC3)cc1)=N[C@@H](C)c1nnc(C)n1-2 [IV-69] |  | < 50 nM | < 50 nM | 500 to 2500 nM
Cc1sc2c(c1C)C(c1ccc(N3CC(CN4CCN(CC5CN(c6cc(F)c(C7=C(c8ccccc8)CCCc8cc(C(=O)O)ccc87)cc6F)C5)CC4)C3)cc1)=N[C@@H](C)c1nnc(C)n1-2 [IV-70] |  | < 50 nM | < 50 nM | 500 to 2500 nM
COc1cc(C2CCN(CC3CCC4(CC3)CN(c3ccc(C5=N[C@@H](C)c6nnc(C)n6-c6sc(C)c(C)c65)cc3)C4)CC2)ccc1C1=C(c2ccccc2Cl)CCCc2cc(C(=O)O)ccc21 [IV-71] |  | < 50 nM | < 50 nM | 500 to 2500 nM
Cc1sc2c(c1C)C(c1ccc(N3CC4(CC(CN5CCN(c6cc(F)c(C7=C(c8ccccc8F)CCCc8cc(C(=O)O)ccc87)cc6F)CC5)C4)C3)cc1)=N[C@@H](C)c1nnc(C)n1-2 [IV-72] |  | < 50 nM | < 50 nM | 500 to 2500 nM

Second part, led by results:

Kd (CDK1) | GI50 [2] | SMILES | GI50 [1] | GI50 [3]
 | < 50 nM | COc1cc(N2CCN(CC3CCN(c4ccc(C5=N[C@@H](C)c6nnc(C)n6-c6sc(C)c(C)c65)c(F)c4)CC3)CC2)ccc1[C@@H]1c2ccc(O)cc2CC[C@@H]1c1ccc(C(F)(F)F)cc1 [III-351] | < 50 nM | > 2500 nM
 | < 50 nM | COc1cc(N2CCC(O)(CN3CCN(c4ccc([C@H]5c6ccc(O)cc6CC[C@@H]5c5ccc(F)cc5)cc4F)CC3)CC2)ccc1C1=N[C@@H](C)c2nnc(C)n2-c2sc(C)c(C)c21 [III-352] | < 50 nM | 500 to 2500 nM
 | 50 to 500 nM | COc1cc(N2CCC(O)(CN3CCN(c4ccc([C@H]5c6ccc(O)cc6CC[C@H]5c5ccc(F)cc5)cc4F)CC3)CC2)ccc1C1=N[C@@H](C)c2nnc(C)n2-c2sc(C)c(C)c21 [III-353] | 50 to 500 nM | 500 to 2500 nM
 | 50 to 500 nM | COc1cc(N2CCN(CC3(O)CCN(c4ccc(C5=N[C@@H](C)c6nnc(C)n6-c6sc(C)c(C)c65)c(F)c4)CC3)CC2)ccc1[C@H]1c2ccc(O)cc2CC[C@H]1c1ccc(C(F)(F)F)cc1 [III-354] | 50 to 500 nM | 500 to 2500 nM
 | < 50 nM | COc1cc(N2CCN(CC3(O)CCN(c4ccc(C5=N[C@@H](C)c6nnc(C)n6-c6sc(C)c(C)c65)c(F)c4)CC3)CC2)ccc1[C@@H]1c2ccc(O)cc2CC[C@@H]1c1ccc(C(F)(F)F)cc1 [III-355] | < 50 nM | 500 to 2500 nM
 | 50 to 500 nM | COc1cc(N2CCC(O)(CN3CCN(c4cc(F)c([C@@H]5c6ccc(O)cc6CC[C@@H]5c5ccccc5)cc4F)CC3)CC2)ccc1C1=N[C@@H](C)c2nnc(C)n2-c2sc(C)c(C)c21 [III-356] | < 50 nM | 500 to 2500 nM
 | 50 to 500 nM | COc1cc(N2CCC(O)(CN3CCN(c4cc(F)c([C@H]5c6ccc(O)cc6CC[C@H]5c5ccccc5)cc4F)CC3)CC2)ccc1C1=N[C@@H](C)c2nnc(C)n2-c2sc(C)c(C)c21 [III-357] | 50 to 500 nM | 500 to 2500 nM
 | < 50 nM | COc1cc(N2CCC(O)(CN3CCN(c4cc(F)c([C@@H]5c6ccc(O)cc6CC[C@@H]5c5ccc(F)cc5)c(F)c4)CC3)CC2)ccc1C1=N[C@@H](C)c2nnc(C)n2-c2sc(C)c(C)c21 [III-358] | < 50 nM | 500 to 2500 nM
 | 50 to 500 nM | COc1cc(N2CCC(O)(CN3CCC(c4cc(F)c([C@H]5c6ccc(O)cc6CC[C@H]5c5ccc(F)cc5)c(F)c4)CC3)CC2)ccc1C1=N[C@@H](C)c2nnc(C)n2-c2sc(C)c(C)c21 [III-359] | 50 to 500 nM | 500 to 2500 nM
